ChEMBL document CHEMBL3988442, “University of Dundee, Small-Polar-MMV Screening Library” (2021)
Values joined by “and” are separate entries in the source; they are usually repeats but may differ in a detail not shown here. Equal values may be shown once.

Columns and labels:
[1] = molecular target: Chromo domain-containing protein 1 (Saccharomyces cerevisiae (strain ATCC 204508 / S288c) (Baker's yeast), UniProt P32657); experiment: ScCHD-1 Enzyme Inhibition Assay; type: functional
[2] = molecular target: T1, Histidine--tRNA ligase (Leishmania infantum, UniProt A4I591); experiment: Leishmania infantum Histidine tRNA synthetase (LdHisRS); type: functional
T1 sequence (A4I591 whole entry): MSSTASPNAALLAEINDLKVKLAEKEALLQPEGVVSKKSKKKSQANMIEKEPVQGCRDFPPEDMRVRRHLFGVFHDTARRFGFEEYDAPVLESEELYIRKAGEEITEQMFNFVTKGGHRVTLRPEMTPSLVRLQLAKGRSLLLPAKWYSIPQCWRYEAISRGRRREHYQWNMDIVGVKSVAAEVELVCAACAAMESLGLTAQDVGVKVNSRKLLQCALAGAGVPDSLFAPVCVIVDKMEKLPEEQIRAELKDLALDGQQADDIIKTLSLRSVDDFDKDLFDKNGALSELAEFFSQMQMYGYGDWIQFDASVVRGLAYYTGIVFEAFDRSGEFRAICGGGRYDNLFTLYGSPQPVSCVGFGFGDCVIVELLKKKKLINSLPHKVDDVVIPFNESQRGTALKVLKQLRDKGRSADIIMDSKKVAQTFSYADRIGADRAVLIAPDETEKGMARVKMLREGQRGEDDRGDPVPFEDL

[3] = molecular target: T2, Ubiquitin-activating enzyme e1, putative (Leishmania donovani (strain BPK282A1), UniProt E9BSI1); experiment: Leishmania donovani Ubiquitin Activating Enzyme (LdE1); type: functional
T2 sequence (E9BSI1 whole entry): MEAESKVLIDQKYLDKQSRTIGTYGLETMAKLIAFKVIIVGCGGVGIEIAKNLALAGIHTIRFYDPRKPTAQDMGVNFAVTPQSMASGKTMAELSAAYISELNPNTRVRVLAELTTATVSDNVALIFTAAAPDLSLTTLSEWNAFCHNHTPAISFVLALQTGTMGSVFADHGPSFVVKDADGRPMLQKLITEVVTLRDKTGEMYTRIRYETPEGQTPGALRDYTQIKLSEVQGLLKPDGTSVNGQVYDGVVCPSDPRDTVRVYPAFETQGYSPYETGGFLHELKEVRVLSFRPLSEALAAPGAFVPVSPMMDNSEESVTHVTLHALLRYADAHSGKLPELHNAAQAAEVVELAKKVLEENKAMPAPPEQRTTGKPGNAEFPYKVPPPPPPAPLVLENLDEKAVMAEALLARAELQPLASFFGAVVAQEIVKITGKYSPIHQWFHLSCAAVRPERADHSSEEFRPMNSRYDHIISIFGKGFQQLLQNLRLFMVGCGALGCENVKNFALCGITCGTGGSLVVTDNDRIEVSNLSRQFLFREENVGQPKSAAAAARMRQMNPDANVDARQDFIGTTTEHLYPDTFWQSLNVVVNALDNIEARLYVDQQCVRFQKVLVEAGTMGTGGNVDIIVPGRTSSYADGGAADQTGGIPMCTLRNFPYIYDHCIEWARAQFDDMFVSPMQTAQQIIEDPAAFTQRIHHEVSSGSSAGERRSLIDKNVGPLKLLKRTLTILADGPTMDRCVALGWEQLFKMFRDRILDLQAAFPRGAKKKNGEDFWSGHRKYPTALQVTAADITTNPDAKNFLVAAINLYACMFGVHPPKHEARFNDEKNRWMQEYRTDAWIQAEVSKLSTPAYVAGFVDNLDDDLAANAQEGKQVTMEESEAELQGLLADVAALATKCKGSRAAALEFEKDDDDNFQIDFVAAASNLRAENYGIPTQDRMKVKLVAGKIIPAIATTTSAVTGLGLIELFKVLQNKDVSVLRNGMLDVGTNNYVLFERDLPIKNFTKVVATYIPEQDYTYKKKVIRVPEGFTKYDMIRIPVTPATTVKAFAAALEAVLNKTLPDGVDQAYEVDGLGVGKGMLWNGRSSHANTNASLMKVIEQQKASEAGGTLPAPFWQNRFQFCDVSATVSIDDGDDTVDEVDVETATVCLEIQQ

[4] = molecular target: Lysine--tRNA ligase (Plasmodium falciparum (isolate 3D7), UniProt Q8IDJ8); experiment: Pf-KRS-1 (Lysyl-RNA Synthetase-1, KRS-1, cytosolic KRS) from Plasmodium falciparum. Inhibitor assay, 384 well plate, luminescence read.; type: functional
[5] = system: Mycobacterium tuberculosis; experiment: Cornell M. t heat shock assay; type: functional, organism-based; conditions: Mycobacterium tuberculosis
[6] = system: Leishmania donovani; experiment: Leishmania intramacrophage assay; type: functional, organism-based; conditions: Leishmania donovani
[7] = molecular target: Polyketide synthase Pks13 (Mycobacterium tuberculosis (strain ATCC 25618 / H37Rv), UniProt I6X8D2); experiment: Mycobacterium tuberculosis Polyketide synthase 13 Thioesterase (PKS13); type: functional
Chain of Polyketide synthase Pks13 (I6X8D2 whole entry): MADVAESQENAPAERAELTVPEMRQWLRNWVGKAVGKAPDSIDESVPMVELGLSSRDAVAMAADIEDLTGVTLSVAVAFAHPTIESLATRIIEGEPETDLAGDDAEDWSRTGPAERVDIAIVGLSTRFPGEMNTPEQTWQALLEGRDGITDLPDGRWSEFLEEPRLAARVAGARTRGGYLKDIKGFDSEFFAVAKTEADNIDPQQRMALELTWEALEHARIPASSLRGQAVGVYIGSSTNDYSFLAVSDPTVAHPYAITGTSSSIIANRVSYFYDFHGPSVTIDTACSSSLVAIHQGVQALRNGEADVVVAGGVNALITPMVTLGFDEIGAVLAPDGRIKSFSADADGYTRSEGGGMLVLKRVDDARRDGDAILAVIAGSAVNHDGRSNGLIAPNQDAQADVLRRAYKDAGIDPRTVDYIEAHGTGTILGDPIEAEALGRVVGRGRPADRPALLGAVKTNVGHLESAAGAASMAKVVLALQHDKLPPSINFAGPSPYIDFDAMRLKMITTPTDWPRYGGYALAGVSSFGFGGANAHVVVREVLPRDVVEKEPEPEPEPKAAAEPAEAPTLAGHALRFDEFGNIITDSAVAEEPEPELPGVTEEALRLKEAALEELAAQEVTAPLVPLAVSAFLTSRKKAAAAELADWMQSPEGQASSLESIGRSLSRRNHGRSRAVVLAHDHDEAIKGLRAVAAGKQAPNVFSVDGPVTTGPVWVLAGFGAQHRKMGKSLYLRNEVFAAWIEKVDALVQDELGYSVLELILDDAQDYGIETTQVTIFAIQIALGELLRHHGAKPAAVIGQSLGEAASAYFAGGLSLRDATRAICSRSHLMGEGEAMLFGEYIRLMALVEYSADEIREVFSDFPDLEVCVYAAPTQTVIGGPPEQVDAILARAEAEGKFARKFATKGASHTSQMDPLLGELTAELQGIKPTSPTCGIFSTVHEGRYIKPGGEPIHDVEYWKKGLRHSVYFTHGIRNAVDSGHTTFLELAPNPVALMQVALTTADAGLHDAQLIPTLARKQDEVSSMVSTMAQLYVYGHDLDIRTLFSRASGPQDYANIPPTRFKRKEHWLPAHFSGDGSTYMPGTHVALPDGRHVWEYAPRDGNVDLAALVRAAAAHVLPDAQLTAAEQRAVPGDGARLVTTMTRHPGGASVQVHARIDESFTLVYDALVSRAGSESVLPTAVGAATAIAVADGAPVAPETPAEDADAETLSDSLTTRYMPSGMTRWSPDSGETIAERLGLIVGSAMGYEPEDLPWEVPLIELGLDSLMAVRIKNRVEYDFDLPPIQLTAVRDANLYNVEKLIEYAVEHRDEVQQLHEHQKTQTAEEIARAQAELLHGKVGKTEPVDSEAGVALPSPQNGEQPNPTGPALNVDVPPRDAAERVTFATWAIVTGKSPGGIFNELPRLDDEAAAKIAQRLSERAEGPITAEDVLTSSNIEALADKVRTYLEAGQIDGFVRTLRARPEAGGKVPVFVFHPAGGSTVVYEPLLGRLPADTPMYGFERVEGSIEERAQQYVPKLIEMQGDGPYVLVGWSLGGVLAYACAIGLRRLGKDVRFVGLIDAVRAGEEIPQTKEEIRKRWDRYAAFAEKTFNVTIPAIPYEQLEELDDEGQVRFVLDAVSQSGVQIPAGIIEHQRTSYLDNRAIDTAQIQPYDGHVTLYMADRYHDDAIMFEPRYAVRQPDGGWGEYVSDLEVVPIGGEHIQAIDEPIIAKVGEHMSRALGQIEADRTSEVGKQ

Chain of Chromo domain-containing protein 1 (P32657 whole entry, the tested form may be a part): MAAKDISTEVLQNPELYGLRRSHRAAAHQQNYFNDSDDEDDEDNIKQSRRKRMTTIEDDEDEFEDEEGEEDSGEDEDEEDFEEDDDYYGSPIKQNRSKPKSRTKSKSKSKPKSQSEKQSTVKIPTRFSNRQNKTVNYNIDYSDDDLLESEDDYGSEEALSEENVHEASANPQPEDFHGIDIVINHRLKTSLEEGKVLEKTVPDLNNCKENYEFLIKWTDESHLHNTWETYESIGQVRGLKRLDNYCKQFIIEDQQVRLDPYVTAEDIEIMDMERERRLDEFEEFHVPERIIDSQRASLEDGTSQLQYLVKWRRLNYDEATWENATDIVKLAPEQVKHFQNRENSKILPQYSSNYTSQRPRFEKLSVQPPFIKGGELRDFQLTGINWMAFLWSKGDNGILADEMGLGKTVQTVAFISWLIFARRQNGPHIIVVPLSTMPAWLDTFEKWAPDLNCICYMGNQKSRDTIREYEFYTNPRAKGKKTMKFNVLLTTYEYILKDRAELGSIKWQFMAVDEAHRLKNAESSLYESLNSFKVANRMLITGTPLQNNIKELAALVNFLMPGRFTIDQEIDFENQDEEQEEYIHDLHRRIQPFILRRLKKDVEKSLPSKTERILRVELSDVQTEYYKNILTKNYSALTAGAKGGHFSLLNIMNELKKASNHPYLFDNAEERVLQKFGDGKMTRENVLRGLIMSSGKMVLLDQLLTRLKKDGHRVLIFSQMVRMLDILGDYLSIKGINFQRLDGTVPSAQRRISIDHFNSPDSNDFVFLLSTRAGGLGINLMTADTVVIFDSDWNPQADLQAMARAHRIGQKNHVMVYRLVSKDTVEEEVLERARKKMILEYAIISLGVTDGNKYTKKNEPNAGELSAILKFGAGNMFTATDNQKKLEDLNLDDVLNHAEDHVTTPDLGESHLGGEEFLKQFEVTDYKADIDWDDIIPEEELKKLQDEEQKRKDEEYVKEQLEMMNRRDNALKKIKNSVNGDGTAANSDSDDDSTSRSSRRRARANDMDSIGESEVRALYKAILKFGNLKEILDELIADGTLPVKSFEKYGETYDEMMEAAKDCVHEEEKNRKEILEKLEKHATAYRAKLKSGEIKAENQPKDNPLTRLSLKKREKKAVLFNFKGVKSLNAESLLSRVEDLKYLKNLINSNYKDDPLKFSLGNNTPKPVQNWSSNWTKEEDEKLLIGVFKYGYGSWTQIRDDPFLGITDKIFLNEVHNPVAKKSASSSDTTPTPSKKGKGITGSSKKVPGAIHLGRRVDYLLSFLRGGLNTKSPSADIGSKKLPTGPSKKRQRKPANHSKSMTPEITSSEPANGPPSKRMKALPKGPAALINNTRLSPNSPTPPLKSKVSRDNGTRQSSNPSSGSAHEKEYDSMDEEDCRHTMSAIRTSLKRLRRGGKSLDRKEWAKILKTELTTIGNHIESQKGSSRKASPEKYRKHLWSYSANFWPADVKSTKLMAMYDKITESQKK
Chain of Lysine--tRNA ligase (Q8IDJ8 whole entry): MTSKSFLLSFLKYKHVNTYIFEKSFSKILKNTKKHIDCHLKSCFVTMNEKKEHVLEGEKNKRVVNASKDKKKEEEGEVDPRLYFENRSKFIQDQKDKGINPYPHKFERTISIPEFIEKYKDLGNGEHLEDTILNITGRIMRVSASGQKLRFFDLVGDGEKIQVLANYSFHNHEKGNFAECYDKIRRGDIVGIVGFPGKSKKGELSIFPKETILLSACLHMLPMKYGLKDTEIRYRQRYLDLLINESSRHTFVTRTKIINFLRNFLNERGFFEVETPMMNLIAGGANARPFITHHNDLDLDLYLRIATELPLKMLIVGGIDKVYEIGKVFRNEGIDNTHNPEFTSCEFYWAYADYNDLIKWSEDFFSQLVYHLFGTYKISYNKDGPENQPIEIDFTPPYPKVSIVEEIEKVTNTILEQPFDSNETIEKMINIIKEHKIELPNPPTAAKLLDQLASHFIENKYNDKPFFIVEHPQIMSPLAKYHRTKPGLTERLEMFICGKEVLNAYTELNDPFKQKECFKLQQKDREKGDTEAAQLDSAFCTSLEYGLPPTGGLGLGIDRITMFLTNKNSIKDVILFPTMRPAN

Compound	IC50 [1] [µM]	IC50 [3] [µM]	other results
FC(F)(F)COCCN1CCCC(c2noc(C3CC3)n2)C1 (stereo not drawn)	> 29.5		
Cc1ccc(S(=O)(=O)NCCNC(=O)c2ccoc2)cc1F	> 29.5		
CSCc1nc(C(C)(C)NC(=O)OC(C)(C)C)no1	> 29.5		
CC(C)c1noc(CCC(=O)NC(C)c2nnc3n2CCCCC3)n1 (stereo not drawn)	> 29.5		
CC(CNC(=O)c1ccc(Cl)cc1I)N1CCCC1 (stereo not drawn)	> 29.5		
Cc1cnn(CC2CCCN2CC(=O)N(C)CCC#N)c1 (stereo not drawn)	> 29.5		
COCCC(=O)N1CCc2cc(Cl)cc(Cl)c2C1	> 29.5		
CN(Cc1cccc(F)c1)C(=O)CN1CCCC1CCc1ccccc1 (stereo not drawn)	> 29.5		
Cc1c(C(=O)NCC2CCCO2)nnn1-c1cccc2c1CCN(C)C2 (stereo not drawn)	> 29.5		
COCCn1ccc(NC(=O)Nc2ccc(C(N)=O)c(F)c2)n1	> 29.5		
Cn1ccc(NC(=O)Cc2cccc(F)c2)n1	> 29.5		
Cc1cc(C)n(CC2CN(Cc3cccc(C(N)=O)c3)CCO2)n1 (stereo not drawn)	> 29.5		
CNc1cc(N2CCCC2CNCc2ccc(Cl)o2)ncn1 (stereo not drawn)	> 29.5		
O=C(c1ccnnc1)N1C[C@@H](OCC2CCOCC2)[C@H]2OCCC[C@H]21	> 29.5		
CN(C(=O)c1ccccn1)c1nc2c(s1)CCc1c-2cnn1C		> 100	IC50 [2]: 30.7 µM and 23.3 µM
CCCN(C(=O)COC)c1nc2c(s1)CCc1c-2cnn1C		> 100	IC50 [2]: 7.02 µM and 8.63 µM; IC50 [4]: > 50.1 µM
Cc1ccc(-c2nnc(CN3CCc4nn(C)c(=O)cc4C3)o2)cc1		> 100	IC50 [2]: 10.5 µM and 12.1 µM
Cn1nc2c(cc1=O)CN(Cc1coc(-c3ccc(F)cc3)n1)CC2		> 100	IC50 [2]: 16.5 µM and 18.8 µM
Cn1nc2c(cc1=O)CN(Cc1coc(-c3cccc(F)c3)n1)CC2		> 100	IC50 [2]: 17 µM and 14.3 µM
CCc1nnc(CNC2CCc3nc(C(C)C)nn3C2)o1 (stereo not drawn)		> 100	IC50 [5]: > 100 µM

Compound	IC50 [1] [µM]	IC50 [3] [µM]	other results
Cn1nc2c(cc1=O)CN(Cc1nc(C3CC3)no1)CC2		> 100	IC50 [2]: 23.8 µM and 20.7 µM
CC(NC(=O)NCCNc1cnccn1)c1cccs1 (stereo not drawn)		> 100	IC50 [6]: > 50.1 µM
CNS(=O)(=O)Cc1ccc(CNC(=O)Nc2cn[nH]c2)cc1		> 100	IC50 [4]: > 50.1 µM
CN(C)c1ccc(C(=O)N2CCN(C(=O)N3CCCCC3)CC2)nn1		> 100	IC50 [7]: > 100 µM
Cc1ccc(-c2nc(CN3CCc4nn(C)c(=O)cc4C3)no2)cc1		> 100	IC50 [2]: 72.7 µM and 85.3 µM
Cn1nc2c(cc1=O)CN(Cc1nnc(-c3ccco3)o1)CC2		> 100	IC50 [2]: 44 µM and 59.9 µM
Cn1nc2c(cc1=O)CN(Cc1nnc(-c3ccc(F)cc3)o1)CC2		> 100	IC50 [2]: 83.1 µM and 70.4 µM
COc1c(CNC2CCc3c(Cl)cccc32)c(C)nn1C (stereo not drawn)	> 29.5		
Cc1ccc(CNC(=O)CN2CCN(CC(O)C3CC3)CC2)cc1 (stereo not drawn)	> 29.5		
O=C(NC1CC1)[C@H]1C[C@H]2OCC[C@H]2N(CC2CCOCC2)C1	> 29.5		
O=C(NC1CC1)[C@H]1CC[C@@H]2[C@@H](CCN2c2ncc(F)cn2)O1	> 29.5		
CC(C)CN1C[C@H]2CCN(c3ncccn3)CC[C@H]2S1(=O)=O	> 29.5		
Cc1ccc(C(=O)N2CCn3cc(CN(C)Cc4ccco4)nc3C2)o1	> 29.5		
Cc1cccc(CN2CCC3(CCCN(C(=O)c4ccsc4)C3)C2=O)n1 (stereo not drawn)	> 29.5		
Cn1cnc2c1C(COCC1CC1)CN(C(=O)Cc1ccsc1)C2 (stereo not drawn)	> 29.5		
CC(C)COCc1cncc2c1CCN(Cc1cnn(C)c1)C2	> 29.5		
Cc1cccc(CN2CC[C@@H]3[C@@H]2CCN3C(=O)c2ccno2)n1	> 29.5		
Cc1cccc(CN2C[C@@H]3COC[C@]3(CNC(=O)c3ccsc3)C2)n1	> 29.5		
Cc1cccc(C(=O)N2C[C@@H](OCc3cccnc3)[C@H]3OCCC[C@@H]32)n1	> 29.5		
